The test system of series [1] is Human rectal adenocarcinoma cells SW837. As to the kind of experiment: Cell survival rate of SW837 cells under drug combination, Cell Titer-Glo. In kind it is cell-based. The conditions noted are these: 120 h. How it is done: (§1) The cell survival rate (%) after the drug combinations was calculated by the formula: cell survival rate=(1−(RLU of DMSO control−RLU of treatment)/(RLU of DMSO control−RLU of blank control))×100%. The DMSO control was a vehicle control with no drugs, and the blank control was a medium control with no drugs and vehicles.
(§2) The value corresponding to the coordinates is the cell survival rate of the combination groups with corresponding concentrations of the two drugs.
(§3) The effect of the drug combinations on the tumor cells was evaluated by statistical methods. The statistical software used was R systems, and the statistical models were Bliss, HSA, Loewe, and ZIP. A synergic value>5 indicates a synergic effect, a synergic value>10 indicates a significant synergic effect, a synergic value<−5 indicates an antagonistic effect, and a synergic value<−10 indicates a significant antagonistic effect. The final efficacy of the drug combinations was further judged by the synergic value.
(§4) Human rectal adenocarcinoma cells SW837 were plated into a 384-well plate at 800 cells/well. […] After 120 h, the cell viability was measured by Cell Titer-Glo method. The Cell Titer-Glo reagent was added at 30 μL/well. The plate was shaken for 2 min and left to stand for 10 min. The RLU value was read on the Envision system.
as §4

Series [2] has as its system Human non-small cell lung cancer cells LU99. As to the kind of experiment: Cell survival rate of LU99 cells under drug combination, Cell Titer-Glo. The class given is cell-based. The conditions noted are these: 120 h. How it is done:
as §1, §2, §3
(§5) Human non-small cell lung cancer cells LU99 were plated into a 384-well plate at 600 cells/well. […] After 120 h, the cell viability was measured by Cell Titer-Glo method. The Cell Titer-Glo reagent was added at 30 μL/well. The plate was shaken for 2 min and left to stand for 10 min. The RLU value was read on the Envision system.
as §5

For series [3], the system named is Human non-small cell lung cancer cells NCI-H2122. Put plainly: Cell survival rate of NCI-H2122 cells under drug combination, Cell Titer-Glo. The conditions noted are these: 120 h. The class given is cell-based. Here is the method:
as §1
The value corresponding to the coordinates is the cell survival rate of the combination groups with corresponding concentrations of the two drugs. For example, in FIG. 1, when the horizontal coordinate read is 0 nM and the vertical coordinate read is 10.03 nM, the value corresponding to the coordinates is 86.1.
as §3
Human non-small cell lung cancer cells NCI-H2122 were plated into a 384-well plate at 600 cells/well. […] After 120 h, the cell viability was measured by Cell Titer-Glo method. […] The RLU value was read on the Envision system.

Series [4] deals with mouse colon cancer CT26 KRAS G12C KI cell subcutaneous graft tumor model. As to the kind of experiment: In vivo anti-tumor evaluation in mouse CT26 KRASG12C KI subcutaneous graft tumor model. How it is done: The animals and the main evaluation indexes were the same as those of Example 8.
Preparation: the compound of the formula (II) was prepared in a vehicle of 5% DMSO+10% Solutol HS 15+85% (6% HP—β-CD); mPD1 was prepared in PBS.
On day 12 after cell inoculation (DO), the grouping and treatment were started after the mean tumor volume reached 69 mm^3. 32 tumor-bearing mice were selected, randomized into 4 groups of 8 mice each as per the tumor volume and the body weight, and treated according to the administration regimen shown in Table 3. The administration volume in mice was 10 mL/kg. The mice were weighed on an electronic balance twice weekly and the tumor volume was measured with a vernier caliper twice weekly.
The main evaluation indexes were tumor volume, TGI, TWI, and RCBW.

Series [5] concerns Human rectal adenocarcinoma cells SW1463. Put plainly: Cell survival rate of SW1463 cells under drug combination, Cell Titer-Glo. In kind it is cell-based. Conditions: 120 h. Here is the method: as §1, §2, §3
(§6) After 120 h, the cell viability was measured by Cell Titer-Glo method. The Cell Titer-Glo reagent was added at 30 μL/well. The plate was shaken for 2 min and left to stand for 10 min. The RLU value was read on the Envision system.

The subject of series [6] is Human non-small cell lung cancer cells SW1573. As to the kind of experiment: Cell survival rate of SW1573 cells under drug combination, Cell Titer-Glo. The class given is cell-based. The conditions noted are these: 120 h. How it is done:
as §1, §2, §3, §6

Series [7] concerns NCI-H2122 human non-small cell lung cancer model. As to the kind of experiment: In vivo anti-tumor evaluation in NCI-H2122 human non-small cell lung cancer model. Set-up: species or system BALB/c nude mice. Here is the method: During the study, the health of the animals was observed daily. If there was a 10% weight loss in the animals, the administration dose was halved; if there was a 15% weight loss, the […] until a normal body weight was restored; or if the tumor volume in the animals exceeded 2,000 mm^3, the mouse was euthanized immediately. If the health condition met the following criteria, euthanasia was performed by the veterinarian:
BALB/c nude mice, aged 6-8 weeks, female, purchased from Beijing Vital River Laboratory Animal Technology Co., Ltd., Certificate No. 20170011008676, and housed in an SPF-grade environment.
NCI-H2122 cells were cultured in an RPMI 1640 medium containing 10% of FBS and 1% of penicillin-streptomycin in an incubator at 37° C. and 5% CO2. […] When the cells were in the logarithmic growth phase and the confluence reached […], the cells were collected and counted. The cells were collected and adjusted to a final concentration of 2.0×10^6 cells/mL. Mice were grafted subcutaneously at the right dorsal region in a volume of 0.15 mL/3×10^5 cells/mouse. When the tumors grew to an average size of about 242 mm^3 (D5 after grafting), 32 tumor-bearing mice were selected, randomized into 4 groups of 8 mice each as per the tumor volume and the body weight, and treated according to the administration regimen shown in Table 1. The dose in mice was 10 mL/kg. The mice were weighed on an electronic balance twice weekly and the tumor volume was measured with a vernier caliper twice weekly. The study was ended on D17 after grafting, and the mice were euthanized after tumor volume measurement.
Tumor volume (TV)=(L×W^2)/2, where L denotes the long diameter of the tumor, and W is the short diameter of the tumor.
TWI=(1−TWtreatment/Dx/TWcontrol/Dx)×100%, where TWcontrol denotes the average tumor weight (g) of the control group, and TWtreatment denotes the average tumor weight (g) of the treatment group.
RCBW (%)=(BWi−BW0)/BW0×100%, where BWi is the body weight of a mouse on a specific day and BW0 is the body weight of the mouse at the baseline.
All experimental data analysis and graphing were performed using GraphPad Prism software (GraphPad Software). Tumor volumes and the body weights of the animals in all groups were statistically compared using two-way ANOVA, Dunnett's multiple comparisons test. Tumor weights of the groups at the endpoint were statistically compared using one-way ANOVA, Dunnett's multiple comparisons test. P<0.05 denotes a statistically significant difference. The tumor volume and weight and body weight of animals are expressed by mean±standard error (SEM).

The mark [8] stands for this setting: Day 33, compound of formula (II) 3 mpk (D 0-9) & 1 mpk (D 10-20) p.o. q.d., mPD1 10 mpk i.p. biw.
[9] abbreviates: after 21 days treatment, compound of formula (II) 3 mpk (D 0-9) & 1 mpk (D 10-20) p.o. q.d., mPD1 10 mpk i.p. biw.
The mark [10] stands for this setting: Day 17, compound of formula (II) 10 mpk p.o. q.d., cetuximab 1 mpk i.p. biw.
Where [11] appears, read: after 12 days treatment, mean ± SEM, compound of formula (II) 10 mpk p.o. q.d., cetuximab 1 mpk i.p. biw.

SMILES strings stand for the structures. Marks after values point to notes of the source that are not given here.

For `Cc1nc(NC(=O)N2CCC[C@H]2C(N)=O)sc1-c1ccnc(C(C)(C)C(F)(F)F)c1` [BYL719, Alpelisib, reference compound], the cell survival rate in series [1] (SW837, Example 2, 10000 nM BYL719 alone) is recorded as 62.9%; in series [2] (LU99, Example 1, 1000 nM BYL719 alone), 62.6%.

Consider `C=CC(=O)N1CCN2c3c(c(=O)n(-c4c(C)ccnc4C(C)C)c4nc(-c5c(O)cccc5F)c(Cl)cc34)N(C)C(=O)[C@H]2C1` [Compound of formula (II), (4aR,8R)-3-acryloyl-11-chloro-10-(2-fluoro-6-hydroxyphenyl)-8-(2-isopropyl-4-methylpyridin-3-yl)-6-methyl-2,3,4,4a,6,8-hexahydro-1H-pyrazino[1′,2′: 4,5] pyrazino[2,3-c][1,8]naphthyridine-5,7-dione], for which the cell survival rate in series [1] (SW837, Example 2, 31.69 nM compound of formula (II) alone) was found to be 60.2%; in series [1] (SW837, Example 4, 31.69 nM compound of formula (II) alone), 56.2%; in series [3] (NCI-H2122, Example 7, 3.17 nM compound of formula (II) alone), 60.7%; in series [2] (LU99, Example 1, 100 nM compound of formula (II) alone), 83%; in series [2] (LU99, Example 3, 100 nM compound of formula (II) alone), 83.8%; in series [2] (LU99, FIG. 1, coordinates 0 nM / 10.03 nM, stated as compound of formula (II) alone (BYL719 0 nM)), 86.1%. In addition, the cell survival rate in series [5] (SW1463, Example 5, 31.69 nM compound of formula (II) alone) was 43.2%; in series [6] (SW1573, Example 6, 100 nM compound of formula (II) alone) it was 86.4%. The “tumor inhibitory effect (in words)” value in series [4] (CT26 KRAS G12C KI subcutaneous graft tumor model) was “mild tumor inhibitory effects”. Also, the TGI in series [4] (setting [8]) was 46.74%; in series [7] (setting [10]), 73.81%. The results for the TWI in series [4] (setting [8]) and in series [7] (setting [10]) were 35.38% and 49.37%, respectively. In addition, in series [4] (setting [9]), the “Body weight After grafting Day 33” value is on record as 22.76 ± 0.37 g. Besides, the “Tumor volume Day 33 after grafting” value in series [4] (setting [9]) is on record as 1065.38 ± 251.12 mm^3; in series [4] (after 21 days treatment, compound of formula (II) 3 mpk (D 0-9) & 1 mpk (D 10-20) p.o. q.d., mPD1 10 mpk i.p. biw, listed as compound of formula (II)), 1,065 mm^3. In series [4] (baseline at grouping (D0), mean ± SEM, n=8), the “Tumor volume After grafting Day 12” value came out at 68.75 ± 6.65 mm^3. In series [4] (baseline, mean ± SEM), the “Body weight Day 12 after grafting” value came out at 21.29 ± 0.29 g. Besides, the “Tumor weight After grafting Day 33” value in series [4] (endpoint, compound of formula (II) 3 mpk (D 0-9) & 1 mpk (D 10-20) p.o. q.d., mPD1 10 mpk i.p. biw) was 1.84 ± 1.12 g. In addition, in series [4] (mean tumor volume at end of study, compound of formula (II) 3 mpk (D 0-9) & 1 mpk (D 10-20) p.o. q.d., mPD1 10 mpk i.p. biw), the T/C turned out to be 54.92%. Also, the “Body weight After grafting Day 17” value in series [7] (setting [11]) was 20.97 ± 0.38 g. For the same compound, the “Tumor volume After grafting Day17” value in series [7] (setting [11]) is recorded as 479.14 ± 58.84*** mm^3. Further, the “Body weight After grafting Day 5” value in series [7] (baseline, mean ± SEM) was 21.16 ± 0.47 g. For the same compound, the “Tumor weight After grafting Day 17” value in series [7] (endpoint, mean ± SEM, compound of formula (II) 10 mpk p.o. q.d., cetuximab 1 mpk i.p. biw) is 0.30 ± 0.04 g.

Take `CS(=O)(=O)N1CCN(Cc2cc3nc(-c4cccc5[nH]ncc45)nc(N4CCOCC4)c3s2)CC1` [GDC0941, Pictilisib, reference compound]: the cell survival rate in series [1] (SW837, Example 4, 1000 nM GDC0941 alone) is recorded as 67.6%; in series [2] (LU99, Example 3, 100 nM GDC0941 alone) it was 85.4%; in series [5] (SW1463, Example 5, 1000 nM GDC0941 alone), 64.6%; in series [6] (SW1573, Example 6, 3164 nM GDC0941 alone), 46%.

Take `CC1(C)CC[C@H](Nc2ncc(C(F)(F)F)c(-c3c[nH]c4c(P(C)(C)=O)c(C#N)ccc34)n2)CN1` [SY-5609, reference compound]: the cell survival rate in series [3] (NCI-H2122, Example 7, 31.69 nM SY-5609 alone) was found to be 57.5%.

The values are drawn from US20250221989A1, “PHARMACEUTICAL COMPOSITION, USE THEREOF, AND METHOD FOR TREATING CANCER” (Genfleet Therapeutics (Shanghai) Inc., priority 2022, published 2025).
